Reference: ChEMBL document CHEMBL4831551, “Novel Heteroaromatic Carboxamides as Plasma Kallikrein Inhibitors for Treating Diabetic Complications, Ocular Diseases, and Edema-Associated Diseases” (ACS Med Chem Lett, 2021)

target: Plasma kallikrein (Homo sapiens, UniProt P03952); experiment: Inhibition of kallikrein (unknown origin) using H-Pro-Phe-Arg-AMC as substrate incubated for 1 hr by fluorescence based analysis
Sequence (P03952 20-390 limits assumed): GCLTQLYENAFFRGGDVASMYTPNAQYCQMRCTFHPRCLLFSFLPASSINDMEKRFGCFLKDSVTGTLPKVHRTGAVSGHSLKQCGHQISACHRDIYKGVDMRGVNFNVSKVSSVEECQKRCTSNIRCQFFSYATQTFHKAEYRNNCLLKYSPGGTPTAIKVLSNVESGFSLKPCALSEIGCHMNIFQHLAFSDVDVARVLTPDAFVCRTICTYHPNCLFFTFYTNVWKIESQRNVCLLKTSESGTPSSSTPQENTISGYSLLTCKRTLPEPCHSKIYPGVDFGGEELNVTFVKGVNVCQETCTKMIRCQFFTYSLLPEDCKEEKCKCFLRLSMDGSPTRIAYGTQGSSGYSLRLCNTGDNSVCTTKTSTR
Sequence (P03952 391-638 limits assumed): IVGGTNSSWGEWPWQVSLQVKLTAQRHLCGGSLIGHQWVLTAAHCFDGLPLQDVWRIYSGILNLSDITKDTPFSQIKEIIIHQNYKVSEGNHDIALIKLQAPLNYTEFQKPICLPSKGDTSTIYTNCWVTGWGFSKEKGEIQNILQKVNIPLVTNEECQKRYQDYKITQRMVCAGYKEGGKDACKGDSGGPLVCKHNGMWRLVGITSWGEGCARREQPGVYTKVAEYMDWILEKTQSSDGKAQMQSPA

Row | SMILES | IC50 [nM]
1 | Cc1[nH]nc2c1CC[C@H]2NC(=O)c1cnn(Cc2ccc(N3CC4C(C3)C4(F)F)nc2C(F)F)c1 (stereo partly specified) | 0.8
2 | Cc1[nH]nc2c1CC[C@H]2NC(=O)c1cn(Cc2ccc(N3CC4C(C3)C4(F)F)nc2C(F)F)cn1 (stereo partly specified) | 0.6
3 | Cc1[nH]nc2c1CC[C@H]2NC(=O)c1cn(Cc2ccc(N3CC4(CC4)C3)nc2C(F)F)nn1 | 0.5
4 | Cc1[nH]nc2c1CC[C@H]2NC(=O)c1cn(Cc2ccc(N3CC4(CC4)C3)nc2C(F)F)cn1 | 0.5
5 | Cc1[nH]nc2c1CC[C@H]2NC(=O)c1cnn(Cc2ccc(N3CC4CC4C3)nc2C(F)F)c1 (stereo partly specified) | 0.8
6 | Cc1[nH]nc2c1CC[C@H]2NC(=O)c1cn(Cc2ccc(N3CC4CC4C3)nc2C(F)F)cn1 (stereo partly specified) | 0.7
